Entries after “also recorded” stand apart in the source; their conditions may differ.
Tests used:
[1] = tested on: isolated mouse liver mitochondria; assay type: biochemical; conditions: for EC50: read-out: EC50 of uncoupling activity
[2] = molecular target: T1, mitochondrial electron transport chain (complex II) (Mus musculus, UniProt Q8K2B3+Q9CQA3+Q9CXV1+Q9CZB0); assay type: biochemical
T1 construct: Mouse liver mitochondria were isolated by homogenization and differential centrifugation; from tissue; host or cells: liver of male C57BL/6JINV (Jax) mice; isolated mitochondria, intact or disrupted by a freeze-thaw cycle

[3] = in vivo, 5 mg/kg
[4] = tested on: rats; conditions: cited from earlier work
[5] = In vitro metabolic stability with rat liver microsomes
[6] = Stability in aqueous 100 mM KPO4 buffer with or without GSH
[7] = tested on: mice; test: NMY1009 in vivo toxicity study; conditions: i.p. daily, 1 to 100 mg/kg, seven days
Description: (§1) Figure 2 Determination of NMY1009 toxicity and plasma and tissue concentrations. (A) 7 treatment groups and 1 vehicle group (four mice per each group) were subjected to 7 daily administrations of the drug i.p. and well-being checks were carried out at 6 and 24 h after each treatment. No deaths or adverse reactions at any of the used NMY1009 doses were observed. (B, C) Tissue and plasma kinetics of NMY1009. Mice were injected with 5 mg/kg NMY1009 i.p. NMY1009 concentrations were measured by LC/MS.
7 treatment groups and 1 vehicle group (four mice per each group) were subjected to 7 daily administrations of the drug i.p. NMY1009 was dissolved in 100% DMSO and the injection volume was 30 μl. Well-being checks were carried out at 6 and 24 h after each treatment. The in vivo toxicity study was carried out by Altogen Labs (Austin, TX).

[8] = NMY1009 plasma and tissue concentrations over time by LC/MS; assay type: in vivo; conditions: mice, 5 mg/kg i.p.
Description: as §1
To characterize the in vivo pharmacokinetics properties of NMY1009, we measured plasma and tissue concentrations over time after an i.p. injection of 5 mg/kg NMY1009. […] The kinetics of the tissue drug concentrations were similar compared to plasma. The observed decline in the adipose tissue concentrations may be due to drug metabolism or renal excretion. The latter possibility appears less likely as the drug concentration in the kidney was very low. […] However, the adipose tissue drug concentrations decreased over time with a half-life of approximately 3 h.
50 mg of tissue were extracted into 1000 μl of acetonitrile. The entire supernatant was dried and reconstituted into 200 μl of 1:1 acetonitrile/water.

[9] = tested on: mice on high fat diet; conditions: mouse, in vivo, ip, 3 mg/kg
[10] = aqueous buffer, ESI mass spectrometry
[11] = aqueous solution without GSH, 37 °C

T1 sequence (Q8K2B3 43-664): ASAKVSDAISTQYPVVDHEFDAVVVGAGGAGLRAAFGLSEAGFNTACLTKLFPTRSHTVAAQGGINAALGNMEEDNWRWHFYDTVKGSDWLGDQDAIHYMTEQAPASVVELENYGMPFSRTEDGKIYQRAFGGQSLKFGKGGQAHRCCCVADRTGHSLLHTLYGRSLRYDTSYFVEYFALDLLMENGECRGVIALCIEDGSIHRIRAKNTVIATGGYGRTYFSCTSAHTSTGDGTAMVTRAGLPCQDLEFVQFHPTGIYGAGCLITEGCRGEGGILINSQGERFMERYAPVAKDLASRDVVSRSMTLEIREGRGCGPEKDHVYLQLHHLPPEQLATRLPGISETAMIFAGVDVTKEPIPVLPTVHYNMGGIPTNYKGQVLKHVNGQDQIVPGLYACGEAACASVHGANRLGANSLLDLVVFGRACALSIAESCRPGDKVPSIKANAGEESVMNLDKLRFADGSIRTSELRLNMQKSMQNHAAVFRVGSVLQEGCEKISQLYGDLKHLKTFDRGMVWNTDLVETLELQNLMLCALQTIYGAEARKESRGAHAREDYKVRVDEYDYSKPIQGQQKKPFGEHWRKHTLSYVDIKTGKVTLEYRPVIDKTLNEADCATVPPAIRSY
T1 sequence (Q9CQA3 31-282): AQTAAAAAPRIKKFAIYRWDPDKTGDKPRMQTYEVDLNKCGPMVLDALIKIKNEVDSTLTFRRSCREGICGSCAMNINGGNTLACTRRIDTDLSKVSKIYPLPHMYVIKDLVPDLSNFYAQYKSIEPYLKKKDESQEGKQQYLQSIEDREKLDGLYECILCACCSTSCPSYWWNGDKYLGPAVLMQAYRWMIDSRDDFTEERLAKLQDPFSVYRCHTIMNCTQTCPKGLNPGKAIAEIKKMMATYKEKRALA
T1 sequence (Q9CZB0 30-169): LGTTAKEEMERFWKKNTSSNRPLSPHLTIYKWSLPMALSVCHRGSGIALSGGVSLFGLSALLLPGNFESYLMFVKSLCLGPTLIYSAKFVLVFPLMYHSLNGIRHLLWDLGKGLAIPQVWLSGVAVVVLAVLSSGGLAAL
T1 sequence (Q9CXV1 57-159): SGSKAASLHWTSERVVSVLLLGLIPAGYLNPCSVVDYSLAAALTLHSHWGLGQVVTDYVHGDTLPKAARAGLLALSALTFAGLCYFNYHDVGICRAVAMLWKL

O=[N+]([O-])c1ccc(O)c([N+](=O)[O-])c1 [2,4-dinitrophenol, reference compound]
EC50, fold stimulation of oxygen consumption [1]: 9600 nM
inhibitory effect on mitochondrial electron transport chain activity [2]: no inhibitory effect

CCCCCCCCOc1cc([N+](=O)[O-])c(O)c([N+](=O)[O-])c1 [2,6-dinitro-4-(octyloxy)phenol]
EC50, fold stimulation of oxygen consumption [1]: 3700 nM
effect on mitochondrial oxygen consumption at very high concentrations [2]: inhibited mitochondrial oxygen consumption at very high concentrations
effect on oxygen consumption with NADH as substrate [2]: minimal effect
effect on succinate-dependent oxygen consumption after disruption of the inner membrane [2]: inhibited succinate-dependent oxygen consumption
plasma concentration kinetics (in words) ([3]; C57BL/6, mouse): decreased rapidly with much faster kinetics compared to 2,6-dinitrophenol
drug tissue concentration, heart ([3]; mouse): BLQ
drug tissue concentration, kidney ([3]; mouse): BLQ
drug tissue concentration, liver ([3]; mouse): BLQ
health of animals during the study ([3]; mouse): healthy throughout the study duration
tissue concentrations (in words) ([3]; mouse, ip): very low

COc1ccc(NN=C(C#N)C#N)cc1 [C1-CCP]
uncoupling activity (in words) [1]: lower uncoupling activity compared to C4-CCP and C8-CCP

CCCCOc1ccc(NN=C(C#N)C#N)cc1 [C4-CCP]
EC50 [1]: ~100 nM

CCCCCCCCCCCCOc1ccc(NN=C(C#N)C#N)cc1 [C12-CCP]
uncoupling activity (in words) [1]: no activity; also recorded: low uncoupling activity

N#CC(C#N)=NNc1ccc(OC(F)(F)F)cc1 [FCCP, carbonyl cyanide p-trifluoromethoxy-phenylhydrazone, reference compound]
doses causing adverse effects [4]: ≥ 5 mg/kg
doses causing death [4]: higher than 20 mg/kg
stability upon incubation with rat liver microsomes (in words) ([5]; presence and absence of NADPH, up to 45 min, 37 °C): stable
drug turnover in aqueous solution in the absence or presence of 0.2 mM GSH (in words) ([6]; 24 h, 37 °C, 100 mM KPO4): not metabolized significantly
incubation time at which the O-dealkylated metabolite (loss of the trifluoromethyl group) was observed [6, 10]: 24 h

CCCCCCCCOc1ccc(NN=C(C#N)C#N)cc1 [NMY1009, (4-octyloxy-phenyl)carbonhydrazonoyl dicyanide]
EC50 [1]: ~100 nM
deaths or adverse reactions (toxicity) [7]: No deaths or adverse reactions were observed; also recorded: no toxicity
tissue distribution (in words) [8]: highest drug tissue concentrations were found in the different types of adipose tissue
half-life ([8]; mouse, adipose tissue, ip, read-out: half-life of adipose tissue drug concentrations (converted)): ~180 min
Tmax ([8]; mouse, plasma, ip, read-out: time of peak plasma concentration (converted)): 30 min
Glucose Tolerance Test response vs vehicle [9]: no altered Glucose Tolerance Test response
blood glucose concentrations and other blood markers of metabolic health vs vehicle [9]: no significant differences in blood glucose concentrations and other blood markers of metabolic health
body composition (body weight and fat mass gains) vs vehicle [9]: no changes in the body composition
respiratory exchange ratio and energy expenditure vs vehicle [9]: no differences the respiratory exchange ratio and energy expenditure
serum adiponectin concentrations vs vehicle [9]: decrease in serum adiponectin concentrations
half-life at 1 µM ([5]; rat, microsomes, pH 7.4): ~30 min
incubation time at which the dealkylated metabolite (loss of the octyl group) was observed [6, 10]: 30 min
time after which one third of the drug was turned over [6, 11]: approximately 1 h
time after which two thirds of the drug were turned over [6, 11]: 6 h
drug remaining at the end of the 24 h incubation ([6]; aqueous solution without GSH, 37 °C, 10 μM): about 18%

Reference: paper PMC10901892 (Scientific Reports, 2024)
